These results are taken from US20100010053A1, “COMPOUNDS” (priority 2008, published 2010).

Structures are written as SMILES.

Series [1] deals with T1, human S1P1 receptor (EDG1) (Homo sapiens, UniProt P21453).
T1 construct: TEV protease site + Gal4-VP16 transcription factor (only in the Tango assay cells; not described for the GTPγS membranes); expressed in transfected cells; host or cells: rat hepatoma cells (membranes, GTPγS assay) or Tango EDG1-bla U2OS cells (Tango assay)
Kind of series: S1P1 GTPγS assay or S1P1 Tango assay (at least one of the above assays). The series is classed as cell-based. The conditions noted are these: read-out: pEC50 in at least one of the above assays (converted). As to the method:
For membrane preparations all steps were performed at 4° C. Rat hepatoma cells stably expressing the human S1P1 receptor or Rat Basophilic Leukaemia cells (RBL) stably expressing human S1P3 receptor were grown to 80% confluency before being harvested into 10 ml Phospho-Buffered Saline (PBS) and centrifuged at 1200 rpm for 5 minutes. After removal of the supernatant, the pellet was re-suspended and cells were homogenised within a glass Waring blender for 2 bursts of 15 secs in 200 mls of buffer (50 mM HEPES, 1 mM leupeptin, 25 μg/ml bacitracin, 1 mM EDTA, 1 mM PMSF, 2 μM pepstatin A). The blender was plunged into ice for 5 mins after the first burst and 10-40 mins after the final burst to allow foam to dissipate. The material was then spun at 500 g for 20 mins and the supernatant spun for 36 mins at 48,000 g. The pellet was resuspended in the same buffer as above but without PMSF and pepstatin A. The material was then forced through a 0.6 mm needle, made up to the required volume, (usually ×4 the volume of the original cell pellet), aliquoted and stored frozen at −80° C. S1P1 GTPγS assay Human S1P1 rat hepatoma membranes (1.5 μg/well) were adhered to a wheatgerm agglutinin (WGA)-coated scintillation proximity assay (SPA) beads (0.125 mg/well) in assay buffer (HEPES 20 mM, MgCl2 10 mM, NaCl 100 mM and pH adjusted to 7.4 using KOH 5M, GDP 10 μM FAC (final assay concentration) and saponin 90 μg/ml FAC was also added).
After 30 minutes pre-coupling on ice the bead and membrane suspension was dispensed into a white Greiner polypropylene LV384-well plate (5 μl/well), containing 0.1 μl of the compound. 5 μl/well [^35S]-GTPγS (0.5 nM final radioligand conc) made up in assay buffer was then added to agonist plates. The final assay cocktail (10.1 μl) was then centrifuged at 1000 rpm for 5 minutes then read immediately on a Viewlux reader.
All test compounds were dissolved in DMSO at a concentration of 10 mM and were prepared in 100% DMSO using a 1 in 4 dilution step to provide 11 point dose response curves. The dilutions were transferred to the assay plates ensuring that the DMSO concentration was constant across the plate for all assays.
All data was normalized to the mean of 16 high and 16 low control wells on each plate. A four parameter curve fit was then applied.
Recombinant EDG1-bla/U2OS cells (contain the human Endothelial Differentiation Gene 1 (EDG1) linked to a TEV protease site and a Gal4-VP16 transcription factor stably integrated into the Tango GPCR-bla U2OS parental cell line) were suspended in assay medium (Invitrogen Freestyle Expression Medium) at a density of 312, 500 cells/ml. Add 100 μl/well of the assay medium to the cell-free control wells (column 12) and 100 μl/well of the cell suspension to the test compound wells (row 2-8, column 1-10), the unstimulated control wells (DMSO) (column 11), and stimulated control wells (S1P) (row 1, column 1-10) in a Corning black-well, clear bottom 96-well plate. Cells were incubated at 37° C., 5% CO2 for 44-48 h. Add 25 μl of 5× stock solution of test compounds in assay medium with 0.5% DMSO to the test compound wells, 25 μl of 5× stock solution of agonist (S1P) in assay medium with 0.5% DMSO to the stimulated compound wells, and 25 μl of 5× stock solution of 0.5% DMSO in assay medium to the unstimulated control and cell-free control wells.
After incubation at 37° C., 5% CO2 for 5 h, 25 μl of 6× substrate mixture (6 μl Solution A (1 mg LiveBLAzer™-FRET B/G substrate (CCF4-AM) in 912 μl DMSO) plus 60 μl Solution B plus 934 μl Solution C) was added to each well and incubate at room temperature for 2 h in dark. The plate was finally read on EnVision for two emission channels (460 nm and 530 nm).
All test compounds were dissolved in DMSO at a concentration of 10 mM and were prepared in 100% DMSO using a 1 in 5 dilution step to provide 10 point dose response curves. […]

Series [2] deals with circulating lymphocytes. The following applies: animals and man; cited from earlier work.
The conditions of series [3]: clinical studies, first 24 hours of treatment; cited from earlier work.
In series [4] the target is T2, human S1P3 receptor (EDG3) (Homo sapiens, UniProt Q99500).
T2 construct: expressed in transfected cells; host or cells: rat basophilic leukaemia cells RBL-2H3 (membranes, GTPγS assay) or GeneBLAzer EDG3-Ga15-NFAT-bla HEK 293T cells
Kind of series: S1P3 GTPγS assay or S1P3 GeneBlazer assay (at least one of the above assays). The series is classed as cell-based. The following applies: given as EC50. How it is done: S1P3 membranes from rat basophilic leukaemia cells (RBL-2H3) (1.5 μg/well) were adhered to WGA-coated SPA beads (0.125 mg/well) in assay buffer (HEPES 20 mM, MgCl2 3 mM, NaCl 100 mM and pH adjusted to 7.4 using KOH 5M), GDP 10 μM FAC and saponin 90 μg/ml FAC was also added).
After 30 minutes pre-coupling on ice the bead and membrane suspension was dispensed into a white Greiner polypropylene LV384-well plate (5 μl/well), containing 0.1 μl of the compound. 5 μl/well [^35S]-GTPγS (0.5 nM final radioligand conc) made up in assay buffer was then added to agonist plates. The final assay cocktail (10.1 μl) was centrifuged at 1000 rpm for 5 minutes then read immediately on a Viewlux reader.
All test compounds were dissolved in DMSO at a concentration of 10 mM and were prepared in 100% DMSO using a 1 in 4 dilution step to provide 11 point dose response curves. The dilutions were transferred to the assay plates ensuring that the DMSO concentration was constant across the plate for all assays. […]
After incubation at 37° C., 5% CO2 for 5 h, 25 μl of 6× substrate mixture (6 μl Solution A (1 mg LiveBLAzer™-FRET B/G Substrate (CCF4-AM) in 912 μl DMSO) plus 60 μl Solution B plus 934 μl Solution C) was added to each well and incubate at room temperature for 2 h in dark. The plate was finally read on EnVision for two emission channels (460 nm and 530 nm). […]

T1 sequence (P21453 whole entry, the tested form may be a part): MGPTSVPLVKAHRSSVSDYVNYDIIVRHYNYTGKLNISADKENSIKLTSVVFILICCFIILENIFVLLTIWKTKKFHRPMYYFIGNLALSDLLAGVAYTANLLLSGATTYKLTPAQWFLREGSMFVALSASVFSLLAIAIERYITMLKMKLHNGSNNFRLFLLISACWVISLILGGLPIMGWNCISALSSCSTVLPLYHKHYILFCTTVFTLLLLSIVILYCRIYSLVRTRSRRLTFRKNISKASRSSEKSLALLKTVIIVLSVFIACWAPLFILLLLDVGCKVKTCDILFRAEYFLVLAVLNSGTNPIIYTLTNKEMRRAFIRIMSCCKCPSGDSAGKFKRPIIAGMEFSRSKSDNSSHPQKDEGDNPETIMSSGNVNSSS
T2 sequence (Q99500 whole entry): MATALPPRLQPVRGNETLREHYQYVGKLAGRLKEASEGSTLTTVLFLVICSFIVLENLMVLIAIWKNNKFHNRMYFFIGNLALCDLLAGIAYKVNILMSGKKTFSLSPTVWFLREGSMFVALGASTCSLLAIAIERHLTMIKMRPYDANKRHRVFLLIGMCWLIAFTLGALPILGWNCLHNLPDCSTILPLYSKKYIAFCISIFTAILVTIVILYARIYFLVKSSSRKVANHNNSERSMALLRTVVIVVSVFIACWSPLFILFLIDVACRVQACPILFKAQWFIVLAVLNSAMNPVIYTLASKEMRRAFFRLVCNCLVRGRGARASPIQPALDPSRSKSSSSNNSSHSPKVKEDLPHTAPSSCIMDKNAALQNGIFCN

For the compound `CC(C)Oc1ccc(-c2nc(-c3cccc4c(CCOCC(=O)O)cn(C)c34)no2)cc1Cl` [Example 79, ({2-[7-(5-{3-chloro-4-[(1-methylethyl)oxy]phenyl}-1,2,4-oxadiazol-3-yl)-1-methyl-1H-indol-3-yl]ethyl}oxy)acetic acid], the EC50 in series [1] was under 10 nM. `CC(C)Cn1cc(CCC(=O)O)c2cccc(-c3noc(-c4ccc(OC(C)C)c(Cl)c4)n3)c21` [Example 30, 3-[7-(5-{3-chloro-4-[(1-methylethyl)oxy]phenyl}-1,2,4-oxadiazol-3-yl)-1-(2-methylpropyl)-1H-indol-3-yl]propanoic acid]: the EC50 in series [1] is at least 1000 nM. Still for that read-out and setting: under `CC(C)Oc1ccc(-c2nc(-c3cccc4c(CCC(=O)O)c[nH]c34)no2)cc1Cl` [Example 1, 3-[7-(5-{3-chloro-4-[(1-methylethyl)oxy]phenyl}-1,2,4-oxadiazol-3-yl)-1H-indol-3-yl]propanoic acid] stands under 10 nM; under `CC(C)Oc1ccc(-c2nc(-c3cccc4c(CCCOCC(=O)O)cn(C)c34)no2)cc1Cl` [Example 80, ({3-[7-(5-{3-chloro-4-[(1-methylethyl)oxy]phenyl}-1,2,4-oxadiazol-3-yl)-1-methyl-1H-indol-3-yl]propyl}oxy)acetic acid], under 10 nM; under `COc1ccc(-c2nc(-c3cccc4c(CCC(=O)O)cn(C)c34)no2)cc1OC` [Example 44, 3-(7-{5-[3,4-bis(methyloxy)phenyl]-1,2,4-oxadiazol-3-yl}-1-methyl-1H-indol-3-yl)propanoic acid], at least 1000 nM. As to `CC(C)Oc1ccc(-c2nc(-c3cccc4c(CN[C@H](C)C(=O)O)c[nH]c34)no2)cc1Cl` [Example 49, N-{[7-(5-{3-chloro-4-[(1-methylethyl)oxy]phenyl}-1,2,4-oxadiazol-3-yl)-1H-indol-3-yl]methyl}-D-alanine], the EC50 in series [1] is under 1 nM. Take `CC(C)Oc1ccc(-c2nc(-c3cccc4c(CCC(=O)O)c[nH]c34)no2)cc1C#N` [Example 3, 3-[7-(5-{3-Cyano-4-[(1-methylethyl)oxy]phenyl}-1,2,4-oxadiazol-3-yl)-1H-indol-3-yl]propanoic acid]: in series [1], the EC50 is under 1 nM. Consider `CCCCCCCCc1ccc(CCC(N)(CO)CO)cc1` [FTY720], for which, in series [2], the “effect on circulating lymphocytes” value is “reduce circulating lymphocytes”. For the same compound, the bradycardia entry in series [3] is “results in bradycardia”. Take `CC(C)Oc1ccc(-c2nc(-c3cccc4c(CN5CCC(C(=O)O)CC5)c[nH]c34)no2)cc1Cl` [Example 48, 1-{[7-(5-{3-chloro-4-[(1-methylethyl)oxy]phenyl}-1,2,4-oxadiazol-3-yl)-1H-indol-3-yl]methyl}-4-piperidinecarboxylic acid]: the EC50 in series [1] is under 10 nM. Regarding `CC(C)Oc1ccc(-c2nc(-c3cccc4c([C@H]5C[C@H]5C(=O)O)cn(C)c34)no2)cc1Cl` (relative stereo) [Example 40, cis-2-[7-(5-{3-chloro-4-[(1-methylethyl)oxy]phenyl}-1,2,4-oxadiazol-3-yl)-1-methyl-1H-indol-3-yl]cyclopropanecarboxylic acid], the EC50 in series [4] was 316 nM. As to `CC(C)Oc1ccc(-c2nc(-c3cccc4c(C(=O)NCCC(=O)O)cn(C)c34)no2)cc1Cl` [Example 76, N-{[7-(5-{3-chloro-4-[(1-methylethyl)oxy]phenyl}-1,2,4-oxadiazol-3-yl)-1-methyl-1H-indol-3-yl]carbonyl}-β-alanine], the EC50 in series [1] was under 1 nM. Still for that read-out and setting: under `CC(C)Oc1ccc(-c2nc(-c3cccc4c(CCNC5(C(=O)O)CC5)cn(C)c34)no2)cc1Cl` [Example 68, 1-({2-[7-(5-{3-chloro-4-[(1-methylethyl)oxy]phenyl}-1,2,4-oxadiazol-3-yl)-1-methyl-1H-indol-3-yl]ethyl}amino)cyclopropanecarboxylic acid] stands under 10 nM; under `CC(C)Oc1ncc(-c2nc(-c3cc(F)cc4c(CCC(=O)O)c[nH]c34)no2)cc1Cl` [Example 101, 3-[7-(5-{5-Chloro-6-[(1-methylethyl)oxy]-3-pyridinyl}-1,2,4-oxadiazol-3-yl)-5-fluoro-1H-indol-3-yl]propanoic acid], under 10 nM.

As to `CC(C)Oc1ccc(-c2nc(-c3cccc4c(CCN5CC(C(=O)O)C5)cn(C)c34)no2)cc1Cl` [Example 67, 1-{2-[7-(5-{3-chloro-4-[(1-methylethyl)oxy]phenyl}-1,2,4-oxadiazol-3-yl)-1-methyl-1H-indol-3-yl]ethyl}-3-azetidinecarboxylic acid], in series [1], the EC50 was under 10 nM.

Turning to `CC(C)Oc1ccc(-c2nc(-c3cccc4c(CNCCC(=O)O)c[nH]c34)no2)cc1Cl` [Example 46, N-{[7-(5-{3-chloro-4-[(1-methylethyl)oxy]phenyl}-1,2,4-oxadiazol-3-yl)-1H-indol-3-yl]methyl}-β-alanine], the EC50 in series [1] is under 10 nM.
